Data on 5 compounds can be found in US20230174582A1, “VIPR2 ANTAGONIST PEPTIDE” (ICHIMARU PHARCOS CO., LTD, priority 2020, published 2023).

The test system of one data set is ICR mice. The data set can be described thus: Novel object recognition test. It counts as in vivo. The note with it: Ro25-1553 0.07 nmol/g mixed with peptide 1 nmol/g, FIG. 9B. As to the method:
We evaluated whether the peptide could improve the recognition function to novel objects, which is reduced by the activation of VIPR2. Ro25-1553 (Peptide Institute, Inc.) an analog of VIP and a selective agonist for VIPR2, was dissolved in PBS (0.07 nmol/g body weight), and then mixed at 99:1 with a representative example of the inventive peptide (Seq-10) dissolved in DMSO (1 nmol/g body weight) or DMSO (Vehicle group) (1% final concentration of DMSO). These solutions were administered subcutaneously once daily to male ICR mice on postnatal day 1 for 14 days, the mice were continuously bred and subjected to a novel object recognition test at 8 weeks of age. The novel object recognition test was conducted during the light period (8:00-20:00) according to Non-Patent Literature 12. First, test cages (30 cm×30 cm×35 cm) made of acrylic-modified polyvinyl chloride were placed in a soundproofed laboratory at an illumination level of 30 lux and covered only with wooden sterilized soft chips (Sankyo Lab Service Co.). […] The animals' behavior during the training and test trials was video-recorded, and the search time for each of the two objects was measured. The discrimination index was calculated as the ratio (%) of the search time difference between object c and object a to the total search time in the test trial.

The nature of data set [1]: Resistance to protease degradation in rat plasma (RP-HPLC peak). To be noted: 37° C., 24 hours compared to 0 hours, FIG. 6. It counts as in vitro ADME. The protocol: To confirm that the peptides of the embodiments are resistant to protease degradation compared to VIpep-3, VIpep-3 or representative peptides of the embodiments (Seq-1, Seq-6, Seq-9, or Seq-10) were mixed in rat plasma, and after a certain incubation time, the residual amount of the peptide was evaluated by the presence or absence of peaks on RP-HPLC. To 1 μL of each 10 mM peptide, 20 μL of rat plasma was added, and incubated at 37° C. for an arbitrary time (0 or 24 hours). Then, for VIpep-3, 80% acetonitrile, for the other peptides, 200 μL each of acetonitrile was added, mixed well, placed on ice for 10 minutes, and centrifuged at 15,000 rpm at 4° C. for 10 minutes to remove plasma proteins.

Data set [2] deals with T1, VIPR2 (Homo sapiens, UniProt P41587).
T1 sequence (P41587 24-438): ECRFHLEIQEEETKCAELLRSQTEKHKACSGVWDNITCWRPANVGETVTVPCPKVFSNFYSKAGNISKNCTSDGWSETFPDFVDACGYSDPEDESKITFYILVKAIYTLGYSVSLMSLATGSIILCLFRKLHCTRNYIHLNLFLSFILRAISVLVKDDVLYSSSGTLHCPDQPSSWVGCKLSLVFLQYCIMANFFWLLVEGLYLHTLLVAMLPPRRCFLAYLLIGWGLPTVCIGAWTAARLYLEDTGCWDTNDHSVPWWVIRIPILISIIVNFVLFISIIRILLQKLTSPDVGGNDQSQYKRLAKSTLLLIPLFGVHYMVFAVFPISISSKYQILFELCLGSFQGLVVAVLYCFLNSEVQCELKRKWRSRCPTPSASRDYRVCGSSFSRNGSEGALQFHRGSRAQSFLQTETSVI
The data set can be described thus: Selective antagonist activity: intracellular calcium change (FLIPR Tetra) in VIPR1-, VIPR2- or PAC1-expressing cells. It is filed as cell-based. Also on record: host or cells: VIPR2-expressing cells. As to the method:
A representative example of any concentration of the inventive peptide (Seq-10) was added to cells expressing VIPR1-expressing cells, VIPR2-expressing cells, or PAC1-expressing cells all of which have been transfected with intracellular calcium concentration indicator and incubated for 30 minutes. Then, VIPR1 cells and VIPR 2 cells were treated with VIP (25 nM and 150 nM, respectively), and PAC1 cells were treated with PACAP (35 nM). The change in intracellular calcium concentration for 2 minutes immediately after the addition thereof was measured by FLIPR Tetra. The inhibition rate of the antagonist peptides was calculated, assuming that the change in intracellular calcium concentration when only the ligand for VIP or PACAP was added was defined as 0% inhibition, and the change in intracellular calcium concentration when both the antagonist peptide and the ligand were not added was defined as 100%.
Background: Calcium assays in cells follow changes in intracellular calcium, usually with a dye or a luminescent sensor.

Data set [3] addresses T2, VIPR2 (Mus musculus, UniProt P41588).
T2 construct: from tissue; host or cells: prefrontal cortex of ICR mice, 12 days old, male
T2 sequence (P41588 23-437): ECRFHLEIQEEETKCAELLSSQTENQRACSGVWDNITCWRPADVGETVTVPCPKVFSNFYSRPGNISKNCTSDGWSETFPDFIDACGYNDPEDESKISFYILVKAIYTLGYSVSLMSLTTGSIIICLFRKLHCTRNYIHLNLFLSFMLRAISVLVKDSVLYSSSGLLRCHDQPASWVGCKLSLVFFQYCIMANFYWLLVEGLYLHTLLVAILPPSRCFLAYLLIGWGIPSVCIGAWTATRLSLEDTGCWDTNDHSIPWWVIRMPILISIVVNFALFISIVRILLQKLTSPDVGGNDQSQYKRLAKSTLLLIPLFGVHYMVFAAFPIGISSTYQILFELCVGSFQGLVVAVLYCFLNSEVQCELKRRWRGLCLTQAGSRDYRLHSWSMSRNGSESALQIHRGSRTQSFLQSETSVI
The data set is described as follows: VIPR2 antagonist activity in vivo: CREB phosphorylation in prefrontal cortex (Western blotting). To be noted: ICR mice 12 days old, male, s.c., Ro25-1553 0.4 nmol/g with peptide 1 or 10 nmol/g, 1 hour, FIG. 8. The protocol: Ro25-1553 (Peptide Institute, Inc.) which is an analog of VIP and a selective agonist for VIPR2, was dissolved in PBS (0.4 nmol/g body weight), and then mixed at 9:1 with the representative example of the inventive peptide (Seq-10) dissolved in DMSO (1 nmol/g body weight or 10 nmol/g body weight) or DMSO (vehicle group) (at a final concentration of DMSO is 10%). These solutions were administered subcutaneously to ICR mice (12 days old, male). 1 hour later, brains were removed, prefrontal cortex was dissected, and the phosphorylation of intracellular cyclic AMP response sequence-binding protein (CREB) (one of the downstream signals of VIPR2) in the cells was evaluated by Western blotting. The antibodies used for Western blotting were anti-phosphorylated CREB antibody (#9198) and anti-CREB antibody (#9197) purchased from Cell Signaling Technology.

Data set [4] deals with T1, VIPR2. The data set is described as follows: Change in intracellular calcium concentration in VIPR2-expressing cells (Fluo-8), peptide co-added with VIP. It counts as cell-based. The note with it: VIP 150 nM, peptide 750 nM co-added, FIG. 5. Also on record: host or cells: purchased human VIPR2-expressing cell line. As to the method: One of the downstream signals of VIPR2 is known to be changes in intracellular calcium concentration. Human VIPR2-expressing cell line (Catalog No. HTS079RTA, manufactured by Eurofins) was treated with Scree Quest™ Fluo-8 No Wash Calcium Assay Kit (Catalog No. 36315, AAT Bioquest) to introduce Fluo-8, an indicator reagent to measure changes in intracellular calcium concentration by fluorescence. The natural ligand VIP (150 nM final concentration) and VIpep-3 (final concentration 750 nM) or representative examples of the peptides of the embodiments (Seq-1, Seq 5-9) (final concentration 750 nM) were co-added and changes in fluorescence intensity were observed over time using fluorescence microscopy. The difference between the fluorescence intensity before the addition of VIP and the strongest fluorescence intensity after the addition of VIP was taken as 100% and compared to the difference in fluorescence intensity when VIpep-3 or the inventive peptide was co-added.

In data set [5] the target is T1, VIPR2. Also on record: host or cells: VIPR2-expressing cells. The note with it: cellular studies, Non-Patent Literature 8; cited from earlier work.
The target of data set [6] is T3, extracellular domain of human VIPR2 (Homo sapiens, UniProt P41587).
T3 sequence (P41587 24-124 limits assumed): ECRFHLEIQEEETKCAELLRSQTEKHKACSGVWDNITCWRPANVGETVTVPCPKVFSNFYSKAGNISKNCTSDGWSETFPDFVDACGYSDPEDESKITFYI
To be noted: recombinant protein, Non-Patent Literature 8; cited from earlier work.

“Also recorded” adds a separate entry of the source. Starred links: 1 amine or outer side, 2 acyl side, 3 side chain; linkers in the order of their positions; H or OH if unused. Positions of bridges follow the written chain, without caps; N, C: chain ends. Non-standard residues stand in square brackets, D forms with d. Residues, ends and D or L forms follow the SMILES beside them. TBMB = c1c(C[*:1])cc(C[*:3])cc1C[*:2]; mXylylene = c1cc(C[*:1])cc(C[*:2])c1; NMeY = CN[C@@H](Cc1ccc(O)cc1)C(=O)O; Dap = NC[C@H](N)C(=O)O; Mpa = O=C(O)CCS; Sar = CNCC(=O)O

Regarding `CC[C@H](C)[C@H](NC(=O)[C@H](CC(C)C)NC(=O)[C@@H]1CC(=O)NCCCC[C@@H]2NC(=O)[C@@H]3CCCN3C(=O)[C@H](CC(C)C)NC(=O)[C@H](Cc3ccc(O)cc3)NC(=O)[C@@H]3CCCN3C(=O)[C@@H]3CCCN3C(=O)[C@@H](NC(C)=O)CSSC[C@H](NC(=O)[C@H](CC(C)C)NC(=O)[C@H](Cc3ccc(O)cc3)NC2=O)C(=O)N1)C(N)=O` [Seq-10, Ac-c(Cys-Pro-Pro-Tyr-Leu-Pro-c[Lys-Tyr-Leu-Cys)-Asp]-Leu-Ile-NH2] (Ac-CPPYLPKYLCDLI-NH2; disulfide 1-10; lactam 7-11), in the data set on ICR mice (s.c. once daily 14 days from postnatal day 1, test at 8 weeks, p less than 0.001 (Student's t-test)), the “recognition of novel objects versus Ro25-1553 alone (discrimination index)” value is reported as “significant improvement”. Moreover, in the data set with ICR mice (s.c. once daily 14 days, test at 8 weeks), the “recognition function compared with normal mice” value was “almost the same as that of normal mice”. The “resistance to protease degradation: peptide-derived RP-HPLC peak after incubation in rat plasma” value (“resistance to protease degradation” for short) in data set [1] is recorded as “resistance to protease degradation; also recorded: remained almost the same”. Moreover, at VIPR2 [2] (peptide preincubated 30 minutes, VIP 25 nM (VIPR1), VIP 150 nM (VIPR2), PACAP 35 nM (PAC1), FIG. 7), the “antagonist activity against VIP-VIPR2 interaction versus VIP-VIPR1 or PACAP-PAC1 interactions (selectivity)” value was “significantly strong against VIP-VIPR2 interaction than those against VIP-VIPR1 or PACAP-PAC1 interactions”. Besides, at VIPR2 [2] (summary statement, Seq-10 tested with VIP 150 nM, FLIPR Tetra), the “antagonist activity against VIPR2-expressing cells” value is given as “antagonist activity”. The “phosphorylation of CREB in prefrontal cortex” value on VIPR2 [3] is recorded as “clearly inhibited”.
As to “c(Mpa-Pro-Pro-Tyr-Leu-Pro-c[Lys-Tyr-Leu-Cys)-Asp]-Leu-Ile-NH2 ([Mpa]PPYLPKYLCDLI-NH2; disulfide (positions not given here); lactam 7-11; not fully specified (bridges)) [Seq-1, cyclization S-S(1-10)/amide(7-11)]”, the “inhibition of the receptor-activating activity of VIP on VIPR2 (antagonist activity, intracellular calcium)” value with VIPR2 [4] is reported as “antagonist activity; also recorded: inhibit the receptor-activating activity of VIP on VIPR2”. Further, the “resistance to protease degradation” value in data set [1] is “resistance to protease degradation; also recorded: remained almost the same”.
As for `CC(=O)N[C@H]1CSSC[C@@H](C(=O)N[C@H](C(=O)N[C@@H](CC(C)C)C(=O)N[C@@H](CC(C)C)C(=O)N[C@@H](CC(C)C)C(=O)N[C@@H](CCCNC(=N)N)C(=O)N[C@@H](CO)C(=O)O)[C@@H](C)O)NC(=O)[C@H](CC(C)C)NC(=O)[C@H](CCCNC(=N)N)NC(=O)[C@H](CCCNC(=N)N)NC(=O)[C@@H]2CCCN2C(=O)[C@H](CC(C)C)NC(=O)[C@H](Cc2ccc(O)cc2)NC(=O)[C@@H]2CCCN2C(=O)[C@@H]2CCCN2C1=O` [VIpep-3, Ac-c(Cys-Pro-Pro-Tyr-Leu-Pro-Arg-Arg-Leu-Cys)-Thr-Leu-Leu-Leu-Arg-Ser-OH] (Ac-CPPYLPRRLCTLLLRS-OH; disulfide 1-10), at VIPR2 [4], the “inhibition of the receptor-activating activity of VIP on VIPR2 (antagonist activity, intracellular calcium)” value is given as “inhibit the receptor-activating activity of VIP on VIPR2”. Besides, the “inhibition of VIP and PACAP signaling pathway through VIPR2” value on VIPR2 [5] was “inhibits”. Moreover, in data set [1], the “resistance to protease degradation” value was “greatly reduced”. The “binding to VIPR2 extracellular region/domain” value in data set [6] is “tightly binds”.
With “c(Mpa-NmeTyr-Leu-NmeGly-c(Cys)-Tyr-Leu-Cys)-Dap-Leu-Ile-NH2 ([Mpa][NMeY]L[Sar]CYLC[Dap]LI-NH2; linker (positions not given here) via TBMB; not fully specified (bridges)) [Seq-9, cyclization TBMB(1-5-8)]”, the “inhibition of the receptor-activating activity of VIP on VIPR2 (antagonist activity, intracellular calcium)” value with VIPR2 [4] was “antagonist activity”. Further, the “resistance to protease degradation” value in data set [1] is recorded as “resistance to protease degradation; also recorded: remained almost the same”.
For `CC[C@H](C)[C@H](NC(=O)[C@H](CC(C)C)NC(=O)[C@@H]1CC(=O)NCCCC[C@@H]2NC(=O)[C@@H]3CCCN3C(=O)[C@H](CC(C)C)NC(=O)[C@H](Cc3ccc(O)cc3)N(C)C(=O)CCSCc3cccc(c3)CSC[C@H](NC(=O)[C@H](CC(C)C)NC(=O)[C@H](Cc3ccc(O)cc3)NC2=O)C(=O)N1)C(N)=O` [Seq-6, c(Mpa-NmeTyr-Leu-Pro-c[Lys-Tyr-Leu-Cys)-Asp]-Leu-Ile-NH2] ([Mpa][NMeY]LPKYLCDLI-NH2; linker 1-8 via mXylylene; lactam 5-9) the same measures were “antagonist activity” and “resistance to protease degradation; also recorded: remained almost the same”.
